Measurements as given in ChEMBL document CHEMBL2069217, “Self-organizing molecular field analysis of NSAIDs: assessment of pharmacokinetic and physicochemical properties using 3D-QSPkR approach” (Eur J Med Chem, 2012).

Assay: Dissociation constant, pKa of the compound
Assay type: physicochemical

Structure (SMILES) | pKa
CC1=C(CC(=O)O)c2cc(F)ccc2/C1=C\c1ccc([S+](C)[O-])cc1 (stereo not drawn) | 4.5
CC(C(=O)O)c1ccc2oc(-c3ccc(Cl)cc3)nc2c1 (stereo not drawn) [BENOXAPROFEN] | 6.9
CC(C(=O)O)c1ccc2c(c1)[nH]c1ccc(Cl)cc12 (stereo not drawn) [CARPROFEN] | 4.7
Cc1cccc(Nc2ccccc2C(=O)O)c1C [MEFENAMIC ACID] | 4.2

The remaining lines, values ahead:

pKa | Structure (SMILES)
4.3 | O=C(O)CCc1nc(-c2ccccc2)c(-c2ccccc2)o1 [OXAPROZIN]
4.7 | CCCCC1C(=O)N(c2ccccc2)N(c2ccc(O)cc2)C1=O (stereo not drawn) [OXYPHENBUTAZONE ANHYDROUS]
4 | CC(C(=O)O)c1ccc(C(=O)c2cccs2)cc1 (stereo not drawn) [SUPROFEN]
4.7 | Cc1cc(CC(=O)O)n(C)c1C(=O)c1ccc(Cl)cc1 [ZOMEPIRAC]
